In patent US12037354B2, “Cyclic pantetheine derivatives and uses thereof” (VectivBio Comet AG, priority 2018, dated 2024):

Test system: Pkd1-/- mouse inner medullary collecting duct cells (mIMRFNPKD 5E4)
Test: mPKD 3D cyst swelling assay (forskolin-induced), Example 818
Type: cell-based
Conditions: 50 uM, after 72 hours of forskolin exposure
Procedure: Cell model and control compounds. mIMCD3 WT cells were obtained via ATCC and modified to create the mIMRFNPKD 5E4 cell line, which has a CRISPR-Cas mediated knockout for Pkd1 as described SLAS Discov. 2017 September; 22(8):974-984. doi: 10.1177/2472555217716056. Cells were cultured in DMEM/F12 (Sigma)+10% FBS (Sigma)+0.5% Pen/Strep (Gibco)+1% GluMax (Gibco). Control compounds used were forskolin (Calbiochem, 344282), Rapamycin (Selleckchem, S1039) and Staurosporin (Selleckchem, S1421).
The 3D mouse cyst swelling assay was performed with Pkd1^−/− mouse inner medullary collecting duct cells (mIMRFNPKD 5E4). The cyst swelling protocol that was used was described previously (SLAS Discov. 2017 September; 22(8):974-984. doi: 10.1177/2472555217716056), with further optimization.
3D culture and compound exposure. mIMRFNPKD 5E4 cells were mixed with Cyst-Gel (OcellO BV). 15 μL of cell-gel mix was pipetted to 384-well plates (Greiner μClear, Greiner Bio-One B.V.) using a CyBio Felix 96/60 robotic liquid dispenser (Analyik Jena AG). […]
Imaging and image analysis. […] Cyst area was determined by calculating for the area in px of each object in every in-focus plain. […] (N represented is number of wells) Fraction of apoptotic nuclei as an indicator of toxicity was calculated as the amount of nuclei without actin signal relative to the total amount of nuclei, both as count-measurements. […]

With `COC(=O)/C=C/C(=O)SCCNC(=O)CCNC(=O)[C@@H]1OP(=O)(O)OCC1(C)C` [Compound 21] the “% prevention of forskolin-induced cyst swelling” value was ≥10%.
